Measurements published in patent US20230107941A1, “HEPATITIS B CAPSID ASSEMBLY MODULATORS” (Venatorx Pharmaceuticals, Inc., priority 2019, published 2023).

Legend:
HBV = experiment: In vitro antiviral assay: anti-HBV replication in HepAD38 cells (extracellular HBV DNA by QPCR); assay type: cell-based, hepatitis B virus (genotype D, serotype ayw); details: Hepatitis B virus, HePAD38, 168 h, 7 days incubation, extracellular HBV DNA by QPCR, read-out: Anti-HBV EC50
In short: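 HepG2-derived HepAD38 cells (HBV genotype D, ayw, tet-repressible CMV) induced by tetracycline withdrawal, treated 7 days at 37 °C with compound (1 μM to 10 pM, 10-fold steps). Supernatant HBV DNA quantified by QPCR against standard curve, percent of DMSO control; EC50 by 4-parameter fit; entecavir positive control.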

[1] = In vitro cytotoxicity assay (MTT cell viability) in HepG2 cells; assay type: cell-based, human; details: human
In short: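 CC50 was derived by 4-parameter fit of viability relative to vehicle controls, measured as MTT formazan absorbance at 492 nm after 3–4 h of reagent and DMSO solubilization. Before that, HepG2 cells seeded overnight at 20,000/well were incubated 7 days at 37°C with compound from 30 μM down to 1.0 nM in half-log steps.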

Compound	EC50 (HBV)	CC50 at 7 days [1]
Cc1c(C(=O)Nc2cccc(B(O)O)c2)c(C)n(C)c1C(=O)C(=O)NC(C)(C)C [Example 46, (3-(5-(2-(tert-butylamino)-2-oxoacetyl)-1,2,4-trimethyl-1H-pyrrole-3-carboxamido)phenyl)boronic acid]	500 to 1000 nM	> 30000 nM
Cc1cc(NC(=O)c2c(C)c(C(=O)C(=O)N[C@@H]3CN[C@H](C(=O)O)C3)n(C)c2C)ccc1F [Example 179, (2S,4S)-4-(2-(4-((4-fluoro-3-methylphenyl)carbamoyl)-1,3,5-trimethyl-1H-pyrrol-2-yl)-2-oxoacetamido)pyrrolidine-2-carboxylic acid]	> 1000 nM	> 30000 nM
Cc1cc(NC(=O)c2c(C)c(C(=O)C(=O)N[C@H]3CC[C@@H](OCC(=O)O)CC3)n(C)c2C)ccc1F [Example 144, 2-(((1s,4s)-4-(2-(4-((4-fluoro-3-methylphenyl)carbamoyl)-1,3,5-trimethyl-1H-pyrrol-2-yl)-2-oxoacetamido)cyclohexyl)oxy) acetic acid]	50 to 499 nM	> 30000 nM
Cc1c(C(=O)Nc2cc(Cl)nc(Cl)c2)c(C)n(C)c1C(=O)C(=O)N[C@]1(C)CC[C@H](O)CC1 [Example 11, N-(2,6-dichloropyridin-4-yl)-5-(2-(((1s,4s)-4-hydroxy-1-methylcyclohexyl)amino)-2-oxoacetyl)-1,2,4-trimethyl-1H-pyrrole-3-carboxamide]	< 50 nM	> 30000 nM
CCOC(=O)CO[C@H]1CC[C@@H](NC(=O)C(=O)c2c(C)c(C(=O)Nc3ccc(F)c(C)c3)c(C)n2C)CC1 [Example 26, ethyl 2-(((1s,4s)-4-(2-(4-((4-fluoro-3-methylphenyl)carbamoyl)-1,3,5-trimethyl-1H-pyrrol-2-yl)-2-oxoacetamido)cyclohexyl)oxy) acetate]	> 1000 nM	> 30000 nM
Cc1csc(C2(NC(=O)c3c(C)c(C(=O)C(=O)NC(C)(C)C)n(C)c3C)CCCC2)n1 [Example 47, 5-(2-(tert-butylamino)-2-oxoacetyl)-1,2,4-trimethyl-N-(1-(4-methylthiazol-2-yl)cyclopentyl)-1H-pyrrole-3-carboxamide]	> 1000 nM	> 30000 nM
Cc1cc(NC(=O)c2c(C)c(C(=O)C(=O)N[C@]3(C)CC[C@H](O)CC3)n(C)c2-c2ccccn2)ccc1F [Example 157, N-(4-fluoro-3-methylphenyl)-5-(2-(((1s,4s)-4-hydroxy-1-methylcyclohexyl)amino)-2-oxoacetyl)-1,4-dimethyl-2-(pyridin-2-yl)-1H-pyrrole-3-carboxamide]	50 to 499 nM	> 30000 nM
Cc1c(C(=O)Nc2ccc(F)c(Br)c2)c(C)n(C)c1C(=O)C(=O)NC(C)(C)C [Example 60, N-(3-bromo-4-fluorophenyl)-5-(2-(tert-butylamino)-2-oxoacetyl)-1,2,4-trimethyl-1H-pyrrole-3-carboxamide]	< 50 nM	> 30000 nM
Cc1cc(NC(=O)c2c(C)c(C(=O)C(=O)N[C@H]3C[C@@H]4CC[C@H]3C4)n(C)c2C)ccc1F [Example 22, 5-(2-(((1S,2S,4R)-bicyclo[2.2.1]heptan-2-yl)amino)-2-oxoacetyl)-N-(4-fluoro-3-methylphenyl)-1,2,4-trimethyl-1H-pyrrole-3-carboxamide]	< 50 nM	5000 to 30000 nM
Cc1cc(NC(=O)c2c(C)c(C(=O)C(=O)NC3(C)CCN(CC(=O)O)CC3)n(C)c2C)ccc1F [Example 27, 2-(4-(2-(4-((4-fluoro-3-methylphenyl)carbamoyl)-1,3,5-trimethyl-1H-pyrrol-2-yl)-2-oxoacetamido)-4-methylpiperidin-1-yl)acetic acid]	500 to 1000 nM	> 30000 nM
CCc1c(C(=O)Nc2ccc(F)c(C)c2)c(C)n(C)c1C(=O)C(=O)N[C@H]1CC[C@@H](O)CC1 [Example 86, 4-ethyl-N-(4-fluoro-3-methylphenyl)-5-(2-(((1s,4s)-4-hydroxycyclohexyl)amino)-2-oxoacetyl)-1,2-dimethyl-1H-pyrrole-3-carboxamide]	< 50 nM	> 30000 nM
CCc1c(C(=O)Nc2ccc(F)c(C)c2)c(C)n(C)c1C(=O)C(=O)N[C@H]1CC[C@@H](S(C)(=O)=O)CC1 [Example 89, 4-ethyl-N-(4-fluoro-3-methylphenyl)-1,2-dimethyl-5-(2-(((1s,4s)-4-(methylsulfonyl)cyclohexyl)amino)-2-oxoacetyl)-1H-pyrrole-3-carboxamide]	< 50 nM	> 30000 nM
Cc1cc(NC(=O)c2c(C)c(C(=O)C(=O)NCC(C)(C)O)n(C)c2-c2cccnc2)ccc1F [Example 154, N-(4-fluoro-3-methylphenyl)-5-(2-((2-hydroxy-2-methylpropyl)amino)-2-oxoacetyl)-1,4-dimethyl-2-(pyridin-3-yl)-1H-pyrrole-3-carboxamide]	50 to 499 nM	> 30000 nM
Cc1c(C(=O)Nc2cc(Cl)nc(Cl)c2)c(C)n(C)c1C(=O)C(=O)N[C@H]1CC[C@@H](O)CC1 [Example 2, N-(2,6-dichloropyridin-4-yl)-5-(2-(((1s,4s)-4-hydroxycyclohexyl)amino)-2-oxoacetyl)-1,2,4-trimethyl-1H-pyrrole-3-carboxamide]	< 50 nM	> 30000 nM
Cc1cc(NC(=O)c2c(C)c(C(=O)C(=O)N[C@H]3CC[C@@H](O)CC3)n(C)c2C(C)C)ccc1F [Example 112, N-(4-fluoro-3-methylphenyl)-5-(2-(((1s,4s)-4-hydroxycyclohexyl)amino)-2-oxoacetyl)-2-isopropyl-1,4-dimethyl-1H-pyrrole-3-carboxamide]	50 to 499 nM	> 30000 nM
Cc1cc(NC(=O)c2c(C(C)C)c(C(=O)C(=O)N[C@]3(C)C[C@H](O)C3)n(C)c2C)ccc1F [Example 93, N-(4-fluoro-3-methylphenyl)-5-(2-(((1s,3s)-3-hydroxy-1-methylcyclobutyl)amino)-2-oxoacetyl)-4-isopropyl-1,2-dimethyl-1H-pyrrole-3-carboxamide]	> 1000 nM	> 30000 nM
Cc1cc(NC(=O)c2c(C)c(C(=O)C(=O)N[C@H]3CC[C@H](S(C)(=O)=O)CC3)n(C)c2C)ccc1F [Example 8, N-(4-fluoro-3-methylphenyl)-1,2,4-trimethyl-5-(2-(((1r,4r)-4-(methylsulfonyl)cyclohexyl)amino)-2-oxoacetyl)-1H-pyrrole-3-carboxamide]	< 50 nM	5000 to 30000 nM
Cc1cc(NC(=O)c2c(C3CC3)c(C(=O)C(=O)NCC(C)(C)O)n(C)c2C)ccc1F [Example 99, 4-cyclopropyl-N-(4-fluoro-3-methylphenyl)-5-(2-((2-hydroxy-2-methylpropyl)amino)-2-oxoacetyl)-1,2-dimethyl-1H-pyrrole-3-carboxamide]	> 1000 nM	> 30000 nM
Cc1cc(NC(=O)c2c(C)c(C(=O)C(=O)N[C@H]3CC[C@@H](S(C)(=O)=O)CC3)n(C)c2C2CC2)ccc1F [Example 129, 2-cyclopropyl-N-(4-fluoro-3-methylphenyl)-1,4-dimethyl-5-(2-(((1s,4s)-4-(methylsulfonyl)cyclohexyl)amino)-2-oxoacetyl)-1H-pyrrole-3-carboxamide]	< 50 nM	> 30000 nM
Cc1cc(NC(=O)c2c(C)c(C(=O)C(=O)NCC(C)(C)O)n(C)c2-c2ccncc2)ccc1F [Example 164, N-(4-fluoro-3-methylphenyl)-5-(2-((2-hydroxy-2-methylpropyl)amino)-2-oxoacetyl)-1,4-dimethyl-2-(pyridin-4-yl)-1H-pyrrole-3-carboxamide]	> 1000 nM	> 30000 nM
Cc1cc(NC(=O)c2c(C)c(C(=O)C(=O)N[C@]3(C)C[C@H](O)C3)n(C)c2C2CCCCC2)ccc1F [Example 116, 2-cyclohexyl-N-(4-fluoro-3-methylphenyl)-5-(2-(((1s,3s)-3-hydroxy-1-methylcyclobutyl)amino)-2-oxoacetyl)-1,4-dimethyl-1H-pyrrole-3-carboxamide]	500 to 1000 nM	> 30000 nM
Cc1cc(NC(=O)c2c(C)c(C(=O)C(=O)NC3(CC(=O)O)CCNCC3)n(C)c2C)ccc1F [Example 145, 2-(4-(2-(4-((4-fluoro-3-methylphenyl)carbamoyl)-1,3,5-trimethyl-1H-pyrrol-2-yl)-2-oxoacetamido)piperidin-4-yl)acetic acid]	50 to 499 nM	> 30000 nM
Cc1cc(NC(=O)c2c(C)c(C(=O)C(=O)Nc3ccccc3N3CCOCC3)n(C)c2C)ccc1F [Example 52, N-(4-fluoro-3-methylphenyl)-1,2,4-trimethyl-5-(2-((2-morpholinophenyl)amino)-2-oxoacetyl)-1H-pyrrole-3-carboxamide]	50 to 499 nM	5000 to 30000 nM
Cc1cc(NC(=O)c2c(C)c(C(=O)C(=O)N[C@@H]3CC[C@H](O)CC3(C)C)n(C)c2C)ccc1F (single isomer, unassigned) [Example 142]	< 50 nM	> 30000 nM
Cc1cc(NC(=O)c2c(C)c(C(=O)C(=O)N[C@H]3CC[C@@H](S(C)(=O)=O)CC3)n(C)c2CC2CC2)ccc1F [Example 124, 2-(cyclopropylmethyl)-N-(4-fluoro-3-methylphenyl)-1,4-dimethyl-5-(2-(((1s,4s)-4-(methylsulfonyl)cyclohexyl)amino)-2-oxoacetyl)-1H-pyrrole-3-carboxamide]	50 to 499 nM	> 30000 nM
Cc1cc(NC(=O)c2c(C3CC3)c(C(=O)C(=O)N[C@H](C)C(F)(F)F)n(C)c2C)ccc1F [Example 101, (R)-4-cyclopropyl-N-(4-fluoro-3-methylphenyl)-1,2-dimethyl-5-(2-oxo-2-((1,1,1-trifluoropropan-2-yl)amino)acetyl)-1H-pyrrole-3-carboxamide]	< 50 nM	> 30000 nM
